According to patent publication US20240208905A1, “ABIRATERONE DERIVATIVE, PREPARATION AND APPLICATION THEREOF” (GUANGDONG ZHONGKE MEDICINE R&D LTD., priority 2021, published 2024):

What was measured:
[1] = system: experimental rabbit ear acne; test: Pharmacodynamics evaluation of acne: coal tar rabbit ear acne model, HE pathology; assay type: in vivo, Japanese big-ear white rabbits; details: 0.01% ointment, 1 g per animal, once a day, two weeks, 10 rabbits per group; for Degree of keratinization: number of rabbits graded + / Degree of keratinization: number of rabbits graded ++ / Degree of keratinization: number of rabbits graded +++ / Degree of keratinization: number of rabbits graded −: hair follicle keratinization
Source text: There are 140 male healthy Japanese big-ear white rabbits, weighing 2.0-2.5 kg. After one week of adaptive rearing, 10 rabbits were randomly selected according to their body weights as the normal control group, and the remaining 130 rabbits were coated with coal tar once a day in the area of 2×2 cm2 at 2 cm outside the opening of ear canal, with a thickness of about 0.5 mm (Before coating, the coal tar was heated to melt in a water bath, and the last coal tar shell was removed before each application; the rabbits in normal control group were coated with olive oil by the same method as before). After 3 weeks for modeling, according to the degree of skin lesion, 130 rabbits were randomly divided into 13 groups which is model control group, Example 1 compound (1 group), Example 2 compound (2 groups), Example 3 compound (3 groups), Example 4 (4 groups), Example 5 (5 groups), Example 6 (6 groups), Example 7 (7 groups), Example 8 (8 groups), Example 9 (9 groups), Example 10 (10 groups), Example 11 (11 groups), Example 12 (12 groups), Example 13 (13 groups), and each group had 10 rabbits. After grouping, each dose group were continued to be coated coal tar in the morning, and after the coal tar was removed in the afternoon, apply the test drug or control drug (both 0.01%/10 g ointment, apply 1 g ointment per animal) on the lesion, once a day, for two consecutive weeks (the model control group and the normal control group were coated with the same amount of matrix). 24 hours after the last administration, the animals were sacrificed by air embolism, and the skin (full thickness) of the ear where the administration was administered was taken, fixed with 4% paraformaldehyde solution, stained with HE, and routinely observed for pathology.1.

[2] = system: human prostate cancer cell VCaP nude mouse transplanted tumor model; test: Prostate tumor pharmacodynamics experiment: VCaP nude mouse transplanted tumor model; assay type: in vivo, BALB/c nude mice; details: day 25, 0.5 mmol·kg−1 i.g. QD; for inhibition in vivo at 500 µmol/kg: Mus musculus, VCaP, po, 600 h, vs solvent control, read-out: Growth Inhibition rate (GI); for Tumor volume, day 25: n=6, * P<0.05, ** P<0.01 vs solvent control
Procedure: Male BALB/c nude mice (number: 90; age: 6-7 weeks) purchased from Beijing Vital River Laboratory Animal Technology Co., Ltd., were raised in the SPF animal room of Suzhou Shengsu New Drug Development Co., Ltd. at a temperature of 20˜25° C. and a relative humidity 40%˜70%, and bright and dark illumination for 12 hours respectively; these mice were allowed to drink and eat freely. After normal feeding for about 6 days, mice with good physical signs can be selected for this experiment after veterinary inspection. Before grouping, animals were identified at their base of tail using marking pens. After grouping, each animal was identified by ear clipping.
Human prostate cancer cells VCaP were obtained from the Shanghai Cell Bank of the Chinese Academy of Sciences (CAS, cryopreserved in liquid nitrogen in our laboratory).
Under a culture condition of 5% CO2 and 37° C., VCaP cells were routinely cultured in DMEM medium containing 10% fetal bovine serum. Digested with 0.25% trypsin and passaged, VCaP cells were passaged 2-3 times per week based on cell growth, with a passage ratio of 1:3 to 1:5.
The VCaP cells in logarithmic growth phase were collected, counted, and resuspended in 50% DMEM basal medium and 50% Matrigel Matrix, and the cell concentration was adjust to 5×10^7 cells/mL; the cells was placed in an ice box; Cell suspension was aspirated with a 1 ml syringe, and injected subcutaneously to the anterior right armpit of nude mice. Each animal was inoculated with 200 μL (1×10^7 cells/mouse), and a VCaP transplant tumor model in nude mice was established. Regularly observe the status of mice, measure the diameter of the tumor with an electronic vernier caliper, input the data into Excel spreadsheets, calculate the tumor volume, and monitor its growth. When the tumor volume reached 100-300 mm3, 60 mice with good health and similar tumor volume were selected, and divided into 10 groups (n=6) based on the tumor volume using random block method, while ensuring that the average body weight of each group remained consistent as much as possible. The day of grouping was taken as the first day of the experiment (D1). The tumor diameters were measured twice a week after the initiation of the experiment, the tumor volumes were calculated, and the body weights of the animals were weighed and recorded at the same time.
Preparation of DMSO&PEG400&PG (v:v:v, 10:60:30): appropriate volumes of DMSO, PEG400 and PG were drawed respectively, and mixed well. The ratio of DMSO, PEG400 and PG in the mixture is 10:60:30 (v:v:v), and this mixture is used as a blank solvent and stored at room temperature.
Appropriate amount of the test compound was weighed and added into a glass bottle, appropriate volume of solvent DMSO was added, be treated with vortex ultrasonication, then appropriate volumes of PEG400 and PG were added in turn, be vortex mixed to obtain a dosing formulation with a final concentration of 0.05M. The dosing formulation was stored in refrigerator at 2-8° C. after subpackaging, and was stirred evenly with vortex before each administration. The dosing formulation was prepared every 7 days, and was subpackaged and stored in refrigerator at 4° C.
Appropriate amount of ZONK1901-10 was weighed and added into a glass bottle, appropriate volume of corn oil, was added, be treated with vortex ultrasonication evenly, a dosing formulation with a final concentration of 19.58 mg·mL-1 (0.05 M) was obtained.

CN(C)CCNC(=O)ON=C1C=C2CC[C@H]3[C@H](CC[C@]4(C)C(c5cccnc5)=CC[C@@H]34)[C@@]2(C)CC1 [Example 1, (8S,9S,10R,13S,14S)-10, 13-Dimethyl-17-(pyridin-3-yl) -6,7,8,9,10,11,12,13,14,15-decahydro-1H-cyclopenteno[a]phenanthrene-3(2H)-one O-((2-(dimethylamino)ethyl)carbamoyl)oxime]
degree of inflammatory cell infiltration: number of rabbits graded + [1]: 5
degree of inflammatory cell infiltration: number of rabbits graded ++ [1]: 3
degree of inflammatory cell infiltration: number of rabbits graded +++ [1]: 2
degree of inflammatory cell infiltration: number of rabbits graded − [1]: 0
Degree of keratinization: number of rabbits graded + [1]: 6
Degree of keratinization: number of rabbits graded ++ [1]: 4
Degree of keratinization: number of rabbits graded +++ [1]: 0
Degree of keratinization: number of rabbits graded − [1]: 0
inhibition in vivo at 500 µmol/kg [2]: 82.2%
Tumor volume, day 25 [2]: 384 ± 32 ** mm3

CN(C)C(=O)ON=C1C=C2CC[C@H]3[C@H](CC[C@]4(C)C(c5cccnc5)=CC[C@@H]34)[C@@]2(C)CC1 [Example 2, (8S,9S,10R,13S,14S)-10,13-Dimethyl-17-(pyridin-3-yl) 6,7,8,9,10,11,12,13,14,15-decahydro-1H-cyclopenta[a]phenanthrene-3(2H)-one O-dimethylcarbamoyl oxime]
degree of inflammatory cell infiltration: number of rabbits graded + [1]: 4
degree of inflammatory cell infiltration: number of rabbits graded ++ [1]: 4
degree of inflammatory cell infiltration: number of rabbits graded +++ [1]: 2
degree of inflammatory cell infiltration: number of rabbits graded − [1]: 0
Degree of keratinization: number of rabbits graded + [1]: 5
Degree of keratinization: number of rabbits graded ++ [1]: 5
Degree of keratinization: number of rabbits graded +++ [1]: 0
Degree of keratinization: number of rabbits graded − [1]: 0
inhibition in vivo at 500 µmol/kg [2]: 81.4%
Tumor volume, day 25 [2]: 393 ± 25 ** mm3

CC(=O)ON=C1C=C2CC[C@H]3[C@H](CC[C@]4(C)C(c5cccnc5)=CC[C@@H]34)[C@@]2(C)CC1 [Example 7, (8S,9S,10R,13S,14S)-10,13-Dimethyl-17-(pyridin-3-yl) -6,7,8,9,10,11,12,13,14,15-decahydro-1H-cyclopenta[a]phenanthrenyl-3(2H)-one O-acetyloxime]
degree of inflammatory cell infiltration: number of rabbits graded + [1]: 5
degree of inflammatory cell infiltration: number of rabbits graded ++ [1]: 3
degree of inflammatory cell infiltration: number of rabbits graded +++ [1]: 2
degree of inflammatory cell infiltration: number of rabbits graded − [1]: 0
Degree of keratinization: number of rabbits graded + [1]: 6
Degree of keratinization: number of rabbits graded ++ [1]: 4
Degree of keratinization: number of rabbits graded +++ [1]: 0
Degree of keratinization: number of rabbits graded − [1]: 0

CC(C)C(=O)OCOC(=O)ON=C1C=C2CC[C@H]3[C@H](CC[C@]4(C)C(c5cccnc5)=CC[C@@H]34)[C@@]2(C)CC1 [Example 8, ((((((8S,9S,10R,13S,14S)-10,13-dimethyl-17-(pyridin-3-yl) -7,8,9,11,12,13,14,15-octahydro-1H-cyclopenta[a]phenanthrenyl-3(2H,6H,10H) -ylidene)amino)oxy)carbonyl)oxy)methyl isobutyrate]
degree of inflammatory cell infiltration: number of rabbits graded + [1]: 4
degree of inflammatory cell infiltration: number of rabbits graded ++ [1]: 4
degree of inflammatory cell infiltration: number of rabbits graded +++ [1]: 2
degree of inflammatory cell infiltration: number of rabbits graded − [1]: 0
Degree of keratinization: number of rabbits graded + [1]: 5
Degree of keratinization: number of rabbits graded ++ [1]: 5
Degree of keratinization: number of rabbits graded +++ [1]: 0
Degree of keratinization: number of rabbits graded − [1]: 0

C[C@]12CCC(=NOC(=O)OCCN3CCOCC3)C=C1CC[C@H]1[C@@H]2CC[C@]2(C)C(c3cccnc3)=CC[C@@H]12 [Example 9]
degree of inflammatory cell infiltration: number of rabbits graded + [1]: 5
degree of inflammatory cell infiltration: number of rabbits graded ++ [1]: 4
degree of inflammatory cell infiltration: number of rabbits graded +++ [1]: 1
degree of inflammatory cell infiltration: number of rabbits graded − [1]: 0
Degree of keratinization: number of rabbits graded + [1]: 6
Degree of keratinization: number of rabbits graded ++ [1]: 4
Degree of keratinization: number of rabbits graded +++ [1]: 0
Degree of keratinization: number of rabbits graded − [1]: 0

C[C@]12CCC(=NOC(=O)C3CCNCC3)C=C1CC[C@H]1[C@@H]2CC[C@]2(C)C(c3cccnc3)=CC[C@@H]12 [Example 10, (8S,9S,10R,13S,14S)-10,13-Dimethyl-17-(pyridin-3-yl) -6,7,8,9,10,11,12,13,14,15-decahydro-1H-cyclopenta[a]phenanthrenyl-3(2H)-one O-piperidine-4-carbonyl oxime]
degree of inflammatory cell infiltration: number of rabbits graded + [1]: 5
degree of inflammatory cell infiltration: number of rabbits graded ++ [1]: 3
degree of inflammatory cell infiltration: number of rabbits graded +++ [1]: 2
degree of inflammatory cell infiltration: number of rabbits graded − [1]: 0
Degree of keratinization: number of rabbits graded + [1]: 6
Degree of keratinization: number of rabbits graded ++ [1]: 3
Degree of keratinization: number of rabbits graded +++ [1]: 0
Degree of keratinization: number of rabbits graded − [1]: 1

CN1CCC(C(=O)ON=C2C=C3CC[C@H]4[C@H](CC[C@]5(C)C(c6cccnc6)=CC[C@@H]45)[C@@]3(C)CC2)CC1 [Example 11, (8S,9S,10R,13S,14S)-10,13-Dimethyl-17-(pyridin-3-yl) -6,7,8,9,10,11,12,13,14,15-decahydro-1H-cyclopenta[a]phenanthrenyl-3(2H)-one O-(1-methylpiperidine-4-carbonyl)oxime]
degree of inflammatory cell infiltration: number of rabbits graded + [1]: 6
degree of inflammatory cell infiltration: number of rabbits graded ++ [1]: 3
degree of inflammatory cell infiltration: number of rabbits graded +++ [1]: 1
degree of inflammatory cell infiltration: number of rabbits graded − [1]: 0
Degree of keratinization: number of rabbits graded + [1]: 7
Degree of keratinization: number of rabbits graded ++ [1]: 3
Degree of keratinization: number of rabbits graded +++ [1]: 0
Degree of keratinization: number of rabbits graded − [1]: 0

CC(=O)N1CCC(C(=O)ON=C2C=C3CC[C@H]4[C@H](CC[C@]5(C)C(c6cccnc6)=CC[C@@H]45)[C@@]3(C)CC2)CC1 [Example 12, 1-(4-(((((8S,9S,10R,13S,14S)-10,13-dimethyl-17-(pyridin-3-yl) -7,8,9,11,12,13,14,15-octahydro-1H-cyclopenteno[a]phenanthrenyl-3(2H,6H, 10H) -ylidene)amino)oxy)carbonyl)piperidin-1-yl)ethanone]
degree of inflammatory cell infiltration: number of rabbits graded + [1]: 5
degree of inflammatory cell infiltration: number of rabbits graded ++ [1]: 4
degree of inflammatory cell infiltration: number of rabbits graded +++ [1]: 1
degree of inflammatory cell infiltration: number of rabbits graded − [1]: 0
Degree of keratinization: number of rabbits graded + [1]: 5
Degree of keratinization: number of rabbits graded ++ [1]: 5
Degree of keratinization: number of rabbits graded +++ [1]: 0
Degree of keratinization: number of rabbits graded − [1]: 0

CN(C)CCN1CCC(C(=O)ON=C2C=C3CC[C@H]4[C@H](CC[C@]5(C)C(c6cccnc6)=CC[C@@H]45)[C@@]3(C)CC2)CC1 [Example 13, (8S,9S,10R,13S,14S)-10,13-Dimethyl-17-(pyridin-3-yl) -6,7,8,9,10,11,12,13,14,15-decahydro-1H-cyclopenta[a]phenanthrenyl-3(2H)-one O-(1-(2-(dimethylamino)ethyl)piperidine-4-carbonyl)oxime]
degree of inflammatory cell infiltration: number of rabbits graded + [1]: 6
degree of inflammatory cell infiltration: number of rabbits graded ++ [1]: 3
degree of inflammatory cell infiltration: number of rabbits graded +++ [1]: 1
degree of inflammatory cell infiltration: number of rabbits graded − [1]: 0
Degree of keratinization: number of rabbits graded + [1]: 4
Degree of keratinization: number of rabbits graded ++ [1]: 6
Degree of keratinization: number of rabbits graded +++ [1]: 0
Degree of keratinization: number of rabbits graded − [1]: 0

CC(=O)ON=C1C=C2CC[C@H]3[C@H](CC[C@]4(C)C(c5cccnc5)=CC[C@@H]34)[C@@]2(C)CC1 [H]
inhibition in vivo at 500 µmol/kg [2]: 69.3%

CCC(=O)O/N=C1/C=C2CC[C@H]3[C@H](CC[C@]4(C)C(c5cccnc5)=CC[C@@H]34)[C@@]2(C)CC1 [ZONK1901-19, reference compound]
inhibition in vivo at 500 µmol/kg [2]: 38.7%
Tumor volume, day 25 [2]: 790 ± 49 * mm3
